# From US6864086B2, “Nitric oxide-scavenging system for culturing oocytes, embryos, or other cells” (Board of Supervisors of Louisiana State University and …, priority 1998, dated 2005)
# Where “and” joins values, the source holds several entries; their conditions need not be identical. Identical values can stand only once. Marks after values point to notes of the source that are not given here.
# System: bovine embryos cultured in groups
# Assay: Example 6: Hb (1 μg/ml) in mBECM-C in presence or absence of cumulus-granulosa cells
# Format: cell-based
# Description: mBECM containing 10 μM β-mercaptoethanol was used to culture embryos, as described in J. Lim et al., “Roles of growth factors in the development of bovine embryos fertilized in vitro and cultured singly in a defined medium,” Reprod. Fertil. Dev., 8, 1199-1205 (1996). To culture individual 8-cell embryos we used mBECM supplemented with 1 ng/ml platelet derived growth factor type AB (PDGF; Upstate Biotechnology Inc., Lake Placid, N.Y.), 1 ng/ml transforming growth factor-β (TGF; R & D System, Minneapolis, Minn.), 50 ng/ml arachidonic acid (AA; Cayman Chemical Co., Ann Arbor, Mich.), 100 μM glutathione (GSH; Sigma Co.) and 1 mg/ml polyvinyl alcohol (PVA) (mBECM-S). mBECM to which 10% (v/v) FBS was added (mBECM-C) was used for co-culturing inseminated zygotes with CGs and for producing 8-cell embryos. Osmolarity of the medium was maintained within the range of 265-290 mOsm.
# The bovine cumulus-oocyte complexes (COCs) used were collected in Madison, Wis. (BOMED, Inc.), and were shipped in 2-ml of maturation medium in a battery powered incubator via overnight express mail service. Oocytes matured during transit and arrived within 24 h after exposure to maturation medium, pre-equilibrated at 39° C. in 5% CO2 in air. At 22-24 h after exposure to the medium, the COCs were inseminated in vitro as described in J. Lim et al., “Intracytoplasmic glutathione concentration and the role of β-mercaptoethanol in preimplantation development of bovine embryos,” Theriogenology, 46, 429-439 (1996). At 18 h post-insemination, COCs were cultured in groups (30-35 embryos) in a 4-well multidish (Nunc, Roskilde, Denmark) containing 0.8-ml of mBECM-C. Embryos were dislodged from CGs at 36-48 h post-insemination.
# In Example 1, embryos (83-85 per group) collected 18 h post-insemination were cultured in mBECM-C, to which 0, 0.008, or 0.04 mM SNP was added at 18 or 60 h post-insemination. In Example 2, 8-cell embryos (80 per group) were produced in a co-culture system containing CGs and mBECM-C, and then beginning at 60 h post-insemination were cultured singly in a defined culture medium (mBECM-S), to which 0, 0.0016, 0.008, or 0.04 mM of SNP (S-0501, Sigma Co.) was added. In Example 3 embryos, either uncleaved (n=99) or developed to the 2-cell stage (90), were collected 48 h post-insemination; and cleaved embryos, either developed to the morula stage (69) or degenerate (63) were collected 144 h post-insemination. NO metabolites were then measured in the embryos. In Example 4, three groups of 95 zygotes each were co-cultured with CGs in mBECM-C, to which 0, 1, or 10 μg/ml Hb (bovine, mainly methemoglobin, H-2500, Sigma Co.) was added. […] Inseminated oocytes (104 per group) were co-cultured with CGs in MBECM-C up to 192 h post-insemination; and Hb (1 μg/ml) was added to the medium at 18, 60, or 144 h post-insemination. In Example 6, inseminated oocytes (93 per group) were cultured in the presence or absence of CGs in mBECM-C to which either 0 or 1 μg/ml Hb was added. In Example 7, 8-cell embryos (100 per group), obtained after culture in mBECM-C supplemented with Hb (1 μg/ml), were cultured singly in mBECM-S, with or without Hb.
# Oocytes or 8-cell embryos were randomly and equally allocated to each treatment group. In Examples 1, 2, and 4-7, oocytes or embryos that had developed to the 2-cell, 8-cell, >8-cell, 16-cell morula, and blastocyst stages were individually scored ‘1’ (developed) at 48, 60, 96, 120, 144 and 192 h post-insemination, respectively. […] Sums of the scores in each stage of development were evaluated by analysis of variance (ANOVA) using the general linear model (PROC-GLM) in the SAS program software. In Example 3, concentrations of NO metabolites in embryos were subjected to ANOVA. […] Differences were regarded as statistically significant where P values were less than 0.05.
substance,measurement,setting,value
hemoglobin [Hb],Percent of Embryos Developed to 2-cell,Hb 1 μg/ml + CG,77%
same,Percent of Embryos Developed to 8-cell,Hb 1 μg/ml + CG,55%
same,Percent of Embryos Developed to 16-cell,Hb 1 μg/ml + CG,51% and 51^b %
same,Percent of Embryos Developed to Blastocyst,Hb 1 μg/ml + CG,33% and 33^b %
same,Percent of Embryos Developed to Morula,Hb 1 μg/ml + CG,40% and 40^b %
same,Percent of Embryos Developed to 2-cell,"Hb 1 μg/ml only, absence of CG",73%
same,Percent of Embryos Developed to 8-cell,"Hb 1 μg/ml only, absence of CG",52%
same,Percent of Embryos Developed to 16-cell,"Hb 1 μg/ml only, absence of CG",34^a %
same,Percent of Embryos Developed to Blastocyst,"Hb 1 μg/ml only, absence of CG",19^a %
same,Percent of Embryos Developed to Morula,"Hb 1 μg/ml only, absence of CG",27^ab %
same,promotion of pre-hatching development of embryos,"Hb 1 μg/ml, cultured in the absence of CG",not seen to promote
